Laboratory results: PMC4864078, “De Novo Transcriptome Analysis and Detection of Antimicrobial Peptides of the American Cockroach Periplaneta americana (Linnaeus)” (PLoS ONE, 2016)
“Also recorded” adds a separate entry of the source.

Legend:
[1] = tested on: C. albicans (ATCC 14053); format: cell-based, Candida albicans; conditions: Mueller-Hinton Broth, 2 × 10^4 CFU/mL, 18 h at 37°C, visible turbidity, complete growth inhibition
Description: (§1) The bacterial strains E. coli (KACC 13821, ATCC 11775) and Staphylococcus aureus (KACC 10768, ATCC 25923), and the yeast strain Candida albicans (KCTC 7121, ATCC 14053) were purchased from the Korean Agricultural Culture Collection (KACC) and Korean Collection for Type Cultures (KCTC). Both bacteria and the yeast were cultivated overnight in tryptic soy broth (TSB; Difco, USA) at 200 rpm in a 37°C shaking incubator to the stationary phase. Bacteria were cultivated for 3 h in fresh TSB medium under the same condition to the log phase. The strains were stored with 15% glycerol at −70°C until use.
(§2) In addition, antimicrobial activities of the peptides were also tested by broth microdilution assays against E. coli, S. aureus, and C. albicans. Briefly, microbes were grown overnight in Mueller-Hinton Broth (MHB) to the onset of the stationary phase with shaking at 200 rpm. The cultures were diluted in fresh MHB to a final concentration of 2 × 10^4 CFU/mL. A stock solution of each peptide was prepared to a concentration of 640 μg/mL in 0.01% acetic acid, and was then serially diluted two-fold to reach a concentration of 10 μg/mL. After 90-μL aliquots of the microbial suspension were dispensed into each well of a 96-well polypropylene microtiter plate, 10 μL of the peptide solution was added. The antimicrobial activities of the peptides were assessed by measuring the visible turbidity in each well of the plate after 18 h of incubation at 37°C. Minimum inhibitory concentrations (MICs) are expressed as a specific value that caused complete growth inhibition.

[2] = tested on: Gram-negative bacteria, Gram-positive bacteria, and yeast; assay: Radial diffusion assay, statement over all three microbes; format: cell-based; conditions: increased in a dose-dependent manner, cleared zone after 12 h at 37°C
Description: as §1
(§3) The radial diffusion assay was performed to test the antimicrobial activities of peptides, as described previously with slight modifications. In brief, bacteria and yeast strains were grown to the mid-logarithmic phase in TSB at 37°C and then washed twice with 10 mM Tris-HCl (containing 5 mM glucose, pH 7.4). A total of 4 × 10^6 CFU was added to 10 mL of an underlay agarose gel [0.03% (w/v) TSB, 1% (w/v) agarose (Sigma, USA), and 0.02% (v/v) Tween 20 (Sigma, USA) in 10 mM Tris-HCl]. The underlay gel was poured into a 100-mm INTEGRID^TM Petri dish. After agarose solidification, 3-mm-diameter wells were punched and 5 μL of each peptide solution was added to each well. Buffer alone was used as a negative control. Plates were incubated at 37°C for 3 h to allow for diffusion of the peptides. The underlay gel was then covered with 10 mL of nutrient-rich agar overlay (6% TSB and 1% agarose in 10 mM Tris-HCl). […] This experiment was repeated at least 3 times and the same results were obtained.

[3] = tested on: S. aureus (ATCC 25923); assay: Broth microdilution assay (MIC); format: cell-based, Staphylococcus aureus; conditions: Mueller-Hinton Broth, 2 × 10^4 CFU/mL, 18 h at 37°C, visible turbidity, complete growth inhibition
Description: as §1, §2

[4] = tested on: E. coli (ATCC 11775); assay: Broth microdilution assay (MIC); format: cell-based, Escherichia coli; conditions: Mueller-Hinton Broth, 2 × 10^4 CFU/mL, 18 h at 37°C, visible turbidity, complete growth inhibition
Description: as §1, §2

[5] = tested on: E. coli; assay: Radial diffusion assay; format: cell-based, Escherichia coli; conditions: diameter of growth inhibition zone after 12 h; compared with melittin; repeated three times
Description: as §1, §3

[6] = tested on: C. albicans; assay: Radial diffusion assay; format: cell-based, Candida albicans; conditions: diameter of growth inhibition zone after 12 h, repeated three times
Description: as §1, §3

[7] = tested on: S. aureus; assay: Radial diffusion assay; format: cell-based, Staphylococcus aureus; conditions: diameter of growth inhibition zone after 12 h; compared with melittin; repeated three times
Description: as §1, §3

[8] = tested on: rat erythrocytes; assay: Hemolytic assay; format: cell-based; conditions: 100 μg/mL, compared to melittin, 30 min at 37°C, A540
Description: This experiment was approved by the Institutional Animal Care and Use Committee (IACUC) of the National Academy of Agricultural Sciences (approval number: NAAS-1114). The hemolytic activity of the peptides was determined by monitoring the release of hemoglobin from rat erythrocytes at 540 nm. For the hemolytic assay, 20 μL of each peptide solution at a predetermined concentration was added to 180 μL of a 2.5% (v/v) suspension of rat erythrocytes in phosphate-buffered saline (PBS). Melittin (Sigma, USA), a hemolytic and α-helical peptide isolated from bee venom, was used as the positive control. This mixture was incubated for 30 min at 37°C, and 600 μL of PBS was then added to each tube. After 3 min of centrifugation at 10,000 ×g, the supernatant was […], and the absorbance was measured at 540 nm. Evaluations were made from the results of at least three independent experiments, each carried out in triplicate.

| Sequence | Minimum Inhibitory Concentration (MIC) [1] | Antimicrobial activity in radial diffusion assay [2] | Minimum Inhibitory Concentration (MIC) [3] | Minimum Inhibitory Concentration (MIC) [4] | Antimicrobial activity in E. coli (radial diffusion assay) [5] | Antimicrobial activity against C. albicans (radial diffusion assay) [6] | Antimicrobial activity in S. aureus (radial diffusion assay) [7] | Hemolytic activity [8] | Antimicrobial activity against C. albicans (radial diffusion assay) ([6]; listed as Contig15_1337–1) |
| --- | --- | --- | --- | --- | --- | --- | --- | --- | --- |
| ALQICTRNMIDDRLPYVADNVRPGTFIKQQRKQKQQRHHTSGTRKRMAKG [ISGCock_Contig04_0915, synthetic peptide, AMPA stretch of a predicted novel AMP from a P. americana transcript] | >64 µg/mL | antimicrobial activity | >64 µg/mL | 64 µg/mL | stronger antimicrobial activity than melittin | strong antimicrobial activity |  |  |  |
| KRMKLNAKKLSFCDHLNSYLNLSPTLFIHNSSKQWSHWLWHNGIRI [ISGCock_Contig15_1337–1, synthetic peptide, first AMPA stretch of a predicted novel AMP from a P. americana transcript] | 16 µg/mL | antimicrobial activity | >64 µg/mL | >64 µg/mL |  | strong antimicrobial activity | greater than that of melittin | relatively low compared to that of melittin | highest antifungal activity of the tested peptides |
| KRMKLNAKKLSFCDHLNSYLNLSPTLFIHNSSKQWSHWLWHNGIRI [ISGCock_Contig15_1337–2, synthetic peptide, second AMPA stretch of a predicted novel AMP from a P. americana transcript] | 64 µg/mL | antimicrobial activity | >64 µg/mL | >64 µg/mL | stronger antimicrobial activity than melittin; also recorded: highest antimicrobial activity of the tested peptides | strong antimicrobial activity | greater than that of melittin | relatively low compared to that of melittin |  |
| CNYISFFRKCKNSQSTMYGCHRMNKCVFSSY [ISGCock_Contig07_3736–1, synthetic peptide, first AMPA stretch of a predicted novel AMP from a P. americana transcript] | >64 µg/mL | antimicrobial activity | >64 µg/mL | >64 µg/mL |  |  |  |  |  |
| RKKVWFIFHVCPKLKQRILSDTHAKNKCRLSPLLIKSTKIKNET [ISGCock_Contig16_4974, synthetic peptide, AMPA stretch of a predicted novel AMP from a P. americana transcript] | 16 µg/mL | antimicrobial activity | 16 µg/mL | 16 µg/mL |  |  |  |  |  |
| ISHNHLTAASITHVKNRGKYIYMHLKFRKTNVLI [ISGCock_Contig16_2060, synthetic peptide, AMPA stretch of a predicted novel AMP from a P. americana transcript] | 16 µg/mL | antimicrobial activity | 16 µg/mL | 16 µg/mL |  |  |  |  |  |
| MKTFLRLYRSLINKVLHV [ISGCock_Contig05_0593, synthetic peptide, AMPA stretch of a predicted novel AMP from a P. americana transcript] | 4 µg/mL | antimicrobial activity | 16 µg/mL | 4 µg/mL |  | strong antimicrobial activity | greater than that of melittin; also recorded: highest antibacterial effect |  |  |
| VVGRKHSILNCIPYLKKKKIMRLVESESIG [ISGCock_Contig12_4176, synthetic peptide, AMPA stretch of a predicted novel AMP from a P. americana transcript] | 8 µg/mL | antimicrobial activity | >64 µg/mL | 8 µg/mL |  | strong antimicrobial activity | greater than that of melittin | relatively low compared to that of melittin |  |
| HLYPCKLNLKLGKVPFHFLNLNHKGKSIMVNQQTCLYYIICQTR [ISGCock_Contig13_4610–1, synthetic peptide, first AMPA stretch of a predicted novel AMP from a P. americana transcript] | >64 µg/mL | antimicrobial activity | >64 µg/mL | 64 µg/mL | stronger antimicrobial activity than melittin | strong antimicrobial activity | greater than that of melittin | relatively low compared to that of melittin |  |
| ANLLRHKVYGYCVLGPKGSSLGGIHGTWHDHHCSLIQRNPSTSTKGN [ISGCock_Contig13_3006, synthetic peptide, AMPA stretch of a predicted novel AMP from a P. americana transcript] | 64 µg/mL | antimicrobial activity | >64 µg/mL | 64 µg/mL |  |  |  |  |  |
| LMLCKGFLRHSYKSIHERGTKRGKLCRISRLALSSLP [ISGCock_Contig10_4736–2, synthetic peptide, second AMPA stretch of a predicted novel AMP from a P. americana transcript] | 32 µg/mL | antimicrobial activity | >64 µg/mL | 16 µg/mL |  | strong antimicrobial activity | greater than that of melittin |  |  |
